B1: BDNF: Brain-derived neurotrophic factor, used as a reference compound (protein, UniProt P23560 19-247, looked up)
Neurotrophic factor BDNF …: APMKEANIRGQGGLAYPGVRTHGTLESVNGPKAGSRGLTSLADTFEHVIEELLDEDQKVRPNEENNKDADLYTSRVMLSSQVPLEPPLLFLLEEYKNYLDAANMSMRVRRHSDPARRGELSVCDSISEWVTAADKKTAVDMSGGTVTVLEKVPVSKGQLKQYFYETKCNPMGYTKEGCRGIDKRHWNSQCRTTQSYVRALTMDSKKRIGWRFIRIDTSCVCTLTIKRGR

System: rat primary dopaminergic neurons (TH positive neurons)
Assay: Survival of primary dopaminergic neurons injured by 6OHDA
Type: cell-based
Conditions: 6OHDA 20 μM, 48 h
Method: Rat dopaminergic neurons were cultured as described (Schinelli S, et al. Journal of neurochemistry 50(6): 1900-1907). Briefly pregnant female rats of 15 days gestation were killed by cervical dislocation (Rats Wistar; Janvier) and the foetuses removed from the uterus. The embryonic midbrains were removed and placed in ice-cold medium of Leibovitz 15 (L15; PanBiotech, Ref P04-27055, Batch: 8810315) containing 2% of Penicillin-Streptomycin (PS; PanBiotech, ref: P06-07100, Batch: 7511015) and 1% of bovine serum albumin (BSA; PanBiotech, Ref: P06-1391100, Batch: H140904). Only the ventral portions of the mesencephalic flexure were used for the cell preparations as this region of the developing brain is rich in dopaminergic neurons. The midbrains were dissociated by trypsinization for 20 minutes (min) at 37° C. (Trypsin EDTA 1×; PanBiotech, Ref: P10-023100, batch: 1670415). The reaction was stopped by the addition of Dulbecco's modified Eagle's medium (DMEM; PanBiotech, Ref: P04-03600, Batch: 9021115) containing DNase I grade II (0.1 mg/ml; PanBiotech, Ref: P60-37780100, Batch: H140508) and 10% of fetal calf serum (FCS; Invitrogen). Cells were then mechanically dissociated by 3 passages through a 10 ml pipette. Cells were then centrifuged at 180×g for 10 min at 4° C. on a layer of BSA (3.5%) in L15 medium. The supernatant was discarded and the cell pellets were re-suspended in a defined culture medium consisting of Neurobasal (Invitrogen, Ref: 21103, Batch: 1754639) supplemented with B27 (2%; Invitrogen, ref: 17504, batch: 1799273), L-glutamine (2 mM; PanBiotech, Ref: P04-80100, Batch: 6620314) and 2% of PS, 10 ng/mL of BDNF (PanBiotech, Ref: CB-1115002, Batch: 121027) and 1 ng/mL of GDNF (PanBiotech, Ref: CB-1116001, Batch: H151004). Viable cells were counted in a Neubauer cytometer using the trypan blue exclusion test. The cells were seeded at a density of 4×10^4 cells/well in 96 well-plates (pre-coated with poly-D-lysine; Greiner, Ref: E150033VJ) and were cultured at 37° C. in a humidified air (95%)/CO2 (5%) atmosphere. Half of the medium was changed every 2 days with fresh medium. In these conditions, after 5 days of culture, astrocytes are present in the culture and release growth factor allowing neurons differentiation. Five to six percent of the neuronal cell population was dopaminergic neurons.
Briefly, on day 6 of culture, cells were pre-treated for 1 h with test compound or reference compound then intoxicated with 6OHDA (20 μM) for 48 h. The following conditions were done:
[…]_+6OHDA (20 μM, 48 h+BDNF (50 ng/ml) as a reference compound
One culture was done with 6 wells per condition. […]
The data were expressed as mean±s.e.m. […]

Molecule	TH positive neurons (0.3 μM)	TH positive neurons (1 μM)	TH positive neurons (3 μM)	TH positive neurons (50 ng/mL)
CCC(C/C=C/c1ccccc1)(c1ccccc1)N(C)CC1CC1 (single isomer, unassigned; (+)) [igmesine, (+)-(E)-N-(cyclopropylmethyl)-N-methyl-3,6-diphenylhex-5-en-3-amine]	94.58 % of the control	100.49 % of the control	87.68 % of the control	–
B1	–	–	–	91.03 % of the control
